The target in data set [1] is bovine serum albumin (Bos taurus, UniProt P02769). As to conditions: known drugs of Example 5, described as poor, medium or high binders; cited from earlier work.
For data set [2] the following is noted: Williams and Lemke 2002; (1), (2) number the two pKa of doxycycline; cited from earlier work.
The nature of data set [3]: pKa by colloidal gold pH titration (ratio O.D. 620 nm/525 nm). As to conditions: colloidal gold pH titration of 1 mM drugs, 1% DMSO, (2) number the two pKa of doxycycline; for pKa: buffered gold colloid (gold nanoparticle solution), pKa observed.
Description: (§1) A series of 50 mM buffers of pH 2-12 was then prepared (phosphate [pH 2, 3, 6, 7, 8], acetate [pH 4 and 5] and borate [pH 9, 10, 11, 12]), which were further diluted 5-fold with the gold colloid solution. The final pH of the 10 mM buffered colloid so obtained was then recorded. Drug solutions (10 μl, 100 mM in DMSO) were then pipeted in 1 mL of the buffered colloid and the mixture was vortex-mixed. After 30 minutes of incubation, the solutions were pipeted in 96-well polystyrene plates and the O.D. at 620 nm and 525 nm were recorded. The ratio O.D. 620 nm/O.D. 525 nm was calculated. This ratio relates to the agglutination of the colloid (i.e., the higher the ratio, the higher the agglutination). Typically, the ionization of a molecule creates charge(s) that may facilitate the agglutination of the colloid. Thus, titering a molecule with buffered gold colloids over a range of pHs can allow one to determine the ionization constant from the interpolated mid-point of the sigmoid curve drawn from agglutinated to unagglutinated colloid as a function of pH.
A short description of data set [4]: physchem. As to conditions: pKa observed.
Description: as §1
Data set [5] concerns serum albumin. As to conditions: literature (Goodman and Gillman 1996); cited from earlier work.
Data set [6] can be described thus: Redox potential with PANI-COOH conductive polymer (O.D. 450 nm). It is filed as physicochemical. As to conditions: 100 μM drug, PANI-COOH at pH 4, 10 minutes room temperature; inferred from 450 nm signal. As to the method:
The redox potential of known drugs were assayed. The known drug at a given final concentration (100 μM) was introduced in a buffered solution of a conductive polymer (poly[aniline-2-carboxylic acid], PANI-COOH) at pH 4. The solution was mixed and incubated at room temperature (10 minutes). The optical density was read at 450 nm. A sample blank containing the drug and phtalate buffer was prepared, incubated and read in the same way. The OD 450 nm of the blank solution was subtracted from the OD 450 nm of the conductive polymer reaction mixture. […] A linear relationship was observed between the 450 nm signal and the reduction potential of the known molecules (FIG. 15.), which allowed the inference of the reduction potential of NCEs.
Screening a library of 60 well-known drugs allowed identification of bromocriptine as a relatively strong […] (E=−364 mV), prazosin and chlorpropamide as relatively strong […] (E=747 and 848 mV), which is in agreement with literature data (Wardman P. (1989) Reduction potentials of one-electron couples involving free radicals in aqueous solution. J. Phys. Chem. Ref. Data 18, 1637-1755). Although a reductant drug may exert beneficial therapeutic effects, an oxidant may be toxic. […]

Data set [7] deals with human serum albumin (Homo sapiens, UniProt P02768). As to conditions: literature (Westphal 1986); cited from earlier work.
Chain of human serum albumin (P02768 25-609): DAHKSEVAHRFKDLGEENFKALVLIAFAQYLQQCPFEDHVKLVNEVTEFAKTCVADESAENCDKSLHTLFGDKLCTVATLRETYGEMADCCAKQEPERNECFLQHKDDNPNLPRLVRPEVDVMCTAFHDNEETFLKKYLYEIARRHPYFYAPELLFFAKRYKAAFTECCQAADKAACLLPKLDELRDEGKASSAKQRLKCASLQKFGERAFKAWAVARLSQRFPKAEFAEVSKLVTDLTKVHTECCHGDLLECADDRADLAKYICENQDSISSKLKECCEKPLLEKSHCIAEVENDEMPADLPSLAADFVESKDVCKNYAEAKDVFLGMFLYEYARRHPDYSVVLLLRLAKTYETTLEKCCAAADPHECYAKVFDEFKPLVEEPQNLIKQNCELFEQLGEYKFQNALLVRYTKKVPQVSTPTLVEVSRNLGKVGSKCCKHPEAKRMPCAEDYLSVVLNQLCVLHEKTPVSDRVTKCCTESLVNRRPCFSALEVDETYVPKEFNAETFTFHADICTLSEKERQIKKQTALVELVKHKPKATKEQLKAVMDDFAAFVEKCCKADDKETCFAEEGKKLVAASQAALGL
The conditions of data set [8]: literature (Goodman and Gillman 1996); cited from earlier work.
The nature of data set [9]: Volume of distribution in humans. As to conditions: human.

The text below walks through data of patent publication US20090029391A1, “REAGENTS AND METHODS FOR THE DETERMINATION OF PK/ADME-TOX CHARACTERISTICS OF NEW CHEMICAL ENTITIES AND OF DRUG CANDIDATES” (priority 2007, published 2009).

Chain of bovine serum albumin (P02769 25-607): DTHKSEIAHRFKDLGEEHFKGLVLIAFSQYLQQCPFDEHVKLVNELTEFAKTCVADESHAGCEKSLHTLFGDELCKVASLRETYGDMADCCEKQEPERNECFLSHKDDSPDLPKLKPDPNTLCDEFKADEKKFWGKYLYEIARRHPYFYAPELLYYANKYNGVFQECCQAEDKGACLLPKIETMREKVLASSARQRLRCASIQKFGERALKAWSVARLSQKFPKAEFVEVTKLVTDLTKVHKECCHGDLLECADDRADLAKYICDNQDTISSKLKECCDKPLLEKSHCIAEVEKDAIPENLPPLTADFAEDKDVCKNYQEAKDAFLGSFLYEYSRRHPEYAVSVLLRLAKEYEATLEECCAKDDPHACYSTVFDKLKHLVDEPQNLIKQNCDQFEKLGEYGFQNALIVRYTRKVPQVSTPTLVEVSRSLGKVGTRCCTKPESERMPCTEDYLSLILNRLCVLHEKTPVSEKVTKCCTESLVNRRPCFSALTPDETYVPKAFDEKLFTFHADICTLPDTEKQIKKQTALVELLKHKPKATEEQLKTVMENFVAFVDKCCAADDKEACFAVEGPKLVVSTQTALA

With `CC(=O)Oc1ccccc1C(=O)O` [Aspirin, Acetylsalicylic acid], in [1], the “binder class to the protein (bovine serum albumin)” value (“binder class to the protein” below) is on record as “poor binders”. Consider `CN(C)CCC(c1ccc(Cl)cc1)c1ccccn1` (stereo not shown) [Chlorpheniramine], for which, in data set [1], the “binder class to the protein” value is “medium binders”. Take `Nc1ccc(S(=O)(=O)c2ccc(N)cc2)cc1` [Dapsone]: in [2], the pKa from reference is 2.4. Besides, the pKa in data set [3] was determined as 3.9. Consider `CC[C@H]1OC(=O)[C@H](C)[C@@H](O[C@H]2C[C@@](C)(OC)[C@@H](O)[C@H](C)O2)[C@H](C)[C@@H](O[C@@H]2O[C@H](C)C[C@H](N(C)C)[C@H]2O)[C@](C)(O)C[C@@H](C)C(=O)[C@H](C)[C@@H](O)[C@]1(C)O` [Erythromycine, Erythromycin], for which the “binder class to the protein” value in data set [1] is listed as “medium binders”. Further, the pKa in data set [3] worked out at 6.9. Turning to `CCOc1ccc2ccccc2c1C(=O)N[C@@H]1C(=O)N2[C@@H]1SC(C)(C)[C@@H]2C(=O)O` [Nafcillin], the pKa in data set [4] is 3. Consider `CC(=O)Nc1ccc(O)cc1` [Paracetamol], for which the pKa from reference in [2] is on record as 9.4. In [3], the pKa observed is on record as 9.5.

As for `C=C[C@H]1C[N@@]2CC[C@H]1C[C@@H]2[C@@H](O)c1ccnc2ccc(OC)cc12` [Quinidine], in data set [3], the pKa turned out to be 7.4.

Take `C=CC1=C(C)/C(=C/c2[nH]c(Cc3[nH]c(/C=C4\NC(=O)C(C)=C4C=C)c(C)c3CCC(=O)O)c(CCC(=O)O)c2C)NC1=O` [bilirubin]: the “bound by serum albumin / by the protein in plasma” value in data set [5] is listed as roughly 100%. For the compound `CCCNC(=O)NS(=O)(=O)c1ccc(Cl)cc1` [chlorpropamide], the “reduction potential E” value in data set [6] is reported as 848 mV. For the compound `C[C@H]1O[C@@H](O[C@H]2[C@@H](O)C[C@H](O[C@H]3[C@@H](O)C[C@H](O[C@H]4CC[C@@]5(C)[C@H](CC[C@@H]6[C@@H]5C[C@@H](O)[C@]5(C)[C@@H](C7=CC(=O)OC7)CC[C@]65O)C4)O[C@@H]3C)O[C@@H]2C)C[C@H](O)[C@@H]1O` [digoxin, Digoxin], in [7], the “apparent affinity for human serum albumin determined by dialysis” value was 1.85.10^5 liters per mole.

As to `COc1cc2nc(N3CCN(C(=O)c4ccco4)CC3)nc(N)c2cc1OC` [prazosin], the “reduction potential E” value in data set [6] is recorded as 747 mV. Turning to `Cn1c(=O)c2[nH]cnc2n(C)c1=O` [theophylline], the “volume of distribution observed experimentally” value in data set [8] is reported as 0.50±0.16 liters per Kg. The compound further returned a Vd in data set [9] of 0.551 L/kg.

One may read the Vd as the apparent volume that relates the amount in the body to the concentration in plasma or blood.
